Experiments:
Assay in all cases: relative viability (nuclei count vs DMSO), 5 days (fraction); higher = more cells survive
[1] = compound: CCCS(=O)(=O)Nc1ccc(F)c(C(=O)c2c[nH]c3ncc(-c4ccc(Cl)cc4)cc23)c1F [Vemurafenib] + CCNC(=O)c1noc(-c2cc(C(C)C)c(O)cc2O)c1-c1ccc(CN2CCOCC2)cc1 [Luminespib] (partner 0.01 µM)
In short: (§1)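 Lung cancer cell lines in 1536-well plates got either a single drug or a fixed anchor-drug dose together with five library-drug doses (not always all listed) in √10 steps, by pin tool, on the day after seeding. Nuclei were counted after 5 days, and relative viability is the treated-to-vehicle ratio of nuclei counts. Values are medians of duplicate plates.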

[2] = compound: Cc1nc(NC(=O)N2CCC[C@H]2C(N)=O)sc1-c1ccnc(C(C)(C)C(F)(F)F)c1 [Alpelisib] + C[C@@H](Oc1cc(-c2cnn(C3CCNCC3)c2)cnc1N)c1c(Cl)ccc(F)c1Cl [Crizotinib] (partner 1 µM)
In short: as §1

[3] = compound: Cc1nc(NC(=O)N2CCC[C@H]2C(N)=O)sc1-c1ccnc(C(C)(C)C(F)(F)F)c1 [Alpelisib] + Cc1cc(Nc2cc(N3CCN(C)CC3)nc(Sc3ccc(NC(=O)C4CC4)cc3)n2)n[nH]1 [Tozasertib] (partner 0.1 µM)
In short: as §1

[4] = compound: COc1cccc2cc(-c3nc([C@H]4CC[C@H](C(=O)O)CC4)n4ncnc(N)c34)[nH]c12 [OSI-027] + Cc1nc(Nc2ncc(C(=O)Nc3c(C)cccc3Cl)s2)cc(N2CCN(CCO)CC2)n1 [Dasatinib] (partner 0.075 µM)
In short: as §1

Cell Line	relative viability ([1]; first compound 0.03162 µM)	relative viability ([1]; first compound 0.3162 µM)	relative viability ([1]; first compound 1 µM)	relative viability ([2]; first compound 0.04 µM)	relative viability ([2]; first compound 0.1265 µM)	relative viability ([2]; first compound 0.4 µM)	relative viability ([2]; first compound 1.265 µM)	relative viability ([2]; first compound 4 µM)	relative viability ([3]; first compound 0.04 µM)	relative viability ([3]; first compound 0.1265 µM)	relative viability ([3]; first compound 0.4 µM)	relative viability ([3]; first compound 1.265 µM)	relative viability ([3]; first compound 4 µM)	relative viability ([4]; first compound 0.01 µM)	relative viability ([4]; first compound 0.03162 µM)	relative viability ([4]; first compound 0.1 µM)	relative viability ([4]; first compound 0.3162 µM)	relative viability ([4]; first compound 1 µM)	relative viability ([1]; first compound 0.1 µM)
NCI-H1993	0.465	0.773	0.86	0.817	0.845	0.799	0.603	0.604	0.621	0.505	0.542	0.511	0.515	0.516	0.543	0.469	0.541	0.549	
EPLC-272H	0.316	0.494	0.228	0.75	0.788	1.09	0.713	0.653	0.256	0.326	0.513	0.203	0.173	0.336	0.314	0.36	0.268	0.102	0.0941
NCI-H441	0.373	0.392	0.316	0.743	0.567	0.746	0.432	0.435	0.629	0.537	0.693	0.418	0.366	0.74	0.577	0.706	0.505	0.526	0.245
201T	1.01	1.14	1.03	0.985	1	1.07	0.98	0.936	0.934	0.918	0.917	0.838	0.8	0.594	0.567	0.588	0.504	0.398	1.05
NCI-H460	0.0379	0.0345	0.0293	0.855	1.02	0.926	0.285	0.296	0.153	0.44	0.563	0.181	0.241	0.568	0.462	0.37	0.243	0.158	0.0333
NCI-H1666	0.933	1.02	0.966	0.914	0.87	0.932	0.765	0.747	0.668	0.63	0.636	0.519	0.528	0.825	0.778	0.732	0.733	0.463	0.877
HOP-62	0.902	0.931	0.971	0.97	0.714	0.884	0.733	0.72	0.328	0.374	0.465	0.322	0.292	0.6	0.675	0.591	0.556	0.301	0.843
SW 1573	0.16	0.377	0.194	0.867	0.784	0.689	0.649	0.593	0.172	0.149	0.175	0.151	0.166	0.379	0.456	0.477	0.494	0.331	0.583
NCI-H2085	0.451	0.423	0.492	0.808	0.769	0.758	0.814	0.796	0.825	0.718	0.907	0.762	0.746	0.199	0.222	0.188	0.227	0.211	0.425
ABC-1			0.779	1.19	1.28	1.04	0.886	0.713	0.175	0.157	0.155	0.195	0.188	0.656	0.516	0.384	0.486	0.216	
LU99A	0.224	0.259	0.288	0.544	0.471	0.509	0.385	0.313	0.283	0.26	0.308	0.259	0.23	0.519	0.513	0.486	0.293	0.259	0.282
NCI-H2009	0.93	0.861	0.921	1.04	1.02	1.11	0.953	0.831	0.729	0.708	0.768	0.696	0.752	0.271	0.264	0.248	0.213	0.207	0.912
LCLC-97TM1	0.811	0.807	0.817	0.343	0.295	0.427	0.208	0.157	0.206	0.176	0.178	0.146	0.117	0.91	0.907	0.849	0.746	0.573	0.768
NCI-H1915	0.698	0.795	0.636	0.903	0.936	0.988	0.78	0.8	0.421	0.381	0.491	0.387	0.392	0.289	0.307	0.279	0.24	0.145	0.727
EKVX	0.884	0.921	0.842	0.956	0.918	1.06	0.749	0.619	0.346	0.308	0.499	0.333	0.198	0.516	0.472	0.515	0.429	0.316	
NCI-H2126	0.847		0.972	1.02	0.957	0.992	0.88	0.735	0.879	0.826	0.809	0.627	0.584	0.562	0.56	0.504	0.374	0.45	0.905
HCC-827	0.654	0.537	0.669	0.927	0.884	0.949	0.91	0.88	0.462	0.409	0.508	0.398	0.366	0.298	0.295	0.326	0.226	0.222	

Cell Line	relative viability ([1]; first compound 0.03162 µM)	relative viability ([1]; first compound 0.3162 µM)	relative viability ([1]; first compound 1 µM)	relative viability ([2]; first compound 0.04 µM)	relative viability ([2]; first compound 0.1265 µM)	relative viability ([2]; first compound 0.4 µM)	relative viability ([2]; first compound 1.265 µM)	relative viability ([2]; first compound 4 µM)	relative viability ([3]; first compound 0.04 µM)	relative viability ([3]; first compound 0.1265 µM)	relative viability ([3]; first compound 0.4 µM)	relative viability ([3]; first compound 1.265 µM)	relative viability ([3]; first compound 4 µM)	relative viability ([4]; first compound 0.01 µM)	relative viability ([4]; first compound 0.03162 µM)	relative viability ([4]; first compound 0.1 µM)	relative viability ([4]; first compound 0.3162 µM)	relative viability ([4]; first compound 1 µM)	relative viability ([1]; first compound 0.1 µM)
NCI-H1650			0.215	1.01	0.941	1.02	0.847	0.956	0.464	0.287	0.375	0.332	0.36	0.313	0.347	0.255	0.279	0.229	0.205
LK-2	0.19	0.131	0.181	0.284	0.188	0.215	0.233	0.252	0.158	0.164	0.179	0.167	0.154	0.343	0.266	0.24	0.203	0.225	0.188
PC-14	0.234	0.18	0.148	0.817	0.893	1.04	0.842	0.766	0.588	0.612	0.655	0.44	0.543	0.237	0.253	0.241	0.303	0.197	
NCI-H1355	0.664	0.696	0.672	1.07	1.11	1.09	0.809	0.824	0.539	0.489	0.528	0.441	0.373	0.718	0.564	0.534	0.409	0.324	0.662
LXF-289	0.647	0.661	0.689	0.798	0.792	0.875	0.84	0.778	0.21	0.182	0.249	0.134	0.128	0.175	0.216	0.198	0.182	0.102	0.584
LOU-NH91	0.301		0.412	0.743	0.702	0.758	0.627	0.59	0.689	0.643	0.656	0.563	0.443	0.533	0.542	0.471	0.407	0.392	
NCI-H2170	0.58	0.559	0.545	1.08	1.17	1.23	0.729	0.71	0.637	0.727	0.771	0.625	0.298	0.635	0.506	0.506	0.56	0.315	0.486
NCI-H2405	0.667		0.576	0.858	0.772	0.889	0.662	0.735	0.725	0.68	0.825	0.682	0.625	0.2	0.204	0.185	0.209	0.178	0.625
SK-MES-1	0.866	0.646	0.745	1.03	0.875	0.968	0.83	0.67	0.937	0.901	1.03	0.745	0.89	0.293	0.407	0.295	0.25	0.247	0.553
LCLC-103H	0.914	0.899	0.967	0.928	0.976	1.05	0.899	0.787	0.462	0.448	0.482	0.357	0.37	0.48	0.497	0.434	0.439	0.27	0.805
NCI-H322M	0.861		0.825	0.797	0.955	0.892	0.708	0.693	0.496	0.435	0.515	0.383	0.284	0.252	0.236	0.224	0.233	0.248	
NCI-H23	0.194	0.166	0.228	0.565	0.497	0.425	0.428	0.432	0.39	0.428	0.459	0.302	0.255	0.718	0.899	0.867	0.746	0.46	0.211
HCC-15	0.203	0.16	0.315	0.814	0.798	0.901	0.668	0.651	0.352	0.373	0.487	0.336	0.263	0.551	0.656	0.624	0.486	0.366	0.484
NCI-H1437	1.09	1.2	1.12	0.904	0.919	1	0.906	0.942	0.41	0.394	0.417	0.336	0.306	0.421	0.441	0.32	0.373	0.192	1.07
A-427	0.846	0.627	0.87	0.775	0.835	1.11	0.773	0.653	0.225	0.196	0.244	0.198	0.194	0.679	0.663	0.573	0.391	0.3	0.919
NCI-H1975	0.295		0.287	0.877	1.01	0.968	0.753	0.68	0.726	0.655	0.755	0.542	0.29	0.309	0.362	0.334	0.301	0.316	0.219
SK-LU-1	0.208	0.171	0.218	0.987	0.792	1.01	0.773	0.763	0.347	0.289	0.372	0.256	0.216	0.169	0.172	0.178	0.127	0.134	0.219

Source: the supplement of paper PMC10307832
